According to US9510593B2, “S-benzylthiouracil compounds and methods of enhancing plant root growth” (Valent BioSciences Corporation, priority 2014, dated 2016):
Entries after “also recorded” stand apart in the source; their conditions may differ.

How the values were obtained:
Type in all cases: in vivo
mungbean = assay: Mungbean pouch assay: growth of primary root and shoot; settings: for Shoot Length / Root Length: 4 days after sowing in growth pouches; for Shoot Length: control 4.8; for Root Length: control 8.8
Experimental: (§1) Seeds were placed in germination pouches consisting of germination paper as an insert in a gas-permeable 16×14 cm plastic pouch (CYG Pouch; Mega International, St. Paul, Minn.). In pouch solution evaluation, S-Benzylthiouracil compounds or their salts were dissolved in a small volume of DMSO and added to sterile water with a maximum of 0.5% v/v DMSO at final dilution. The S-Benzylthiouracil solution was subsequently pipetted into the growth pouch, followed by the addition of seeds of the crop being tested. The pouches were arranged in a randomized complete block design in growth racks and placed in 19-liter polycarbonate food storage containers (Rubbermaid Commercial Products, Winchester, Va.). The sealed containers were held in an upright growth cabinet maintained at 25 C with a 12 hour light: 12 hour dark photoperiod. For rice, plants were harvested at 6 d, while in mungbean and corn, the plants were harvested at 4 d post sowing. Measurements were performed on the primary root and shoot of each seedling. The growth of the primary root of mungbean was examined in the pouch assay system. The results of the testing, presented as percent change in root length across all the free S-Benzylthiouracil compounds is shown below. The following S-Benzylthiouracil compounds have benzyl substitutions as defined in Table 11 below.

[1] = test system: Maize (cultivar; Kuromochi); assay: Maize growth enhancement by seed treatment under low temperature stress; settings: for Average weight of the shoots: 2.5° C. for 4 days, 18th day after seeding, control 1.50
Experimental: Maize seeds (cultivar; Kuromochi) were treated with Compound 1 at dose rates of 0.005 gram to 0.5 gram per 100 kilogram seeds. The seeds were sown into a soil pot (one seed/pot) and then cultivated in a growth chamber at a temperature of 27° C. and a day length of 16 hours for 10 days. On the 10th day after seeding, the plants were subjected to a temperature of 2.5° C. for 4 days at a day length of 16 hours. Following the stress treatment, they were cultivated for an additional 4 days in a growth chamber at a temperature of 27° C. and a day length of 16 hours. On the 18th day after seeding, the fresh shoot weight of each plant was measured for 5 replicates.

radish cv. Cherry Belle = assay: Radish assay, continuous exposure; settings: for Root Length / Shoot Length: 6 days; for Root Length: control 3.2; for Shoot Length: control 4.0
Text: In order to determine if a root crop was sensitive to a S-Benzylthiouracil, we tested the effect of Compound 1 on radish cv. Cherry Belle (Table 21).

rice = assay: Rice pouch assay: growth of primary root and shoot; settings: for Shoot Length: control 1.7
Experimental: as §1, with “of rice” for “of mungbean”, “all” for “all the free”, “S-Benzylthiouracil compounds, are” for “S-Benzylthiouracil compounds is”, “below.” for “below. The following S-Benzylthiouracil compounds have benzyl substitutions as defined in Table 11 below.”

[2] = test system: Rice (cultivar; Nipponbare); assay: Rice growth enhancement by hydroponic treatment under drought stress
Experimental: Germinated rice seeds (cultivar; Nipponbare) were cultivated in 2-fold diluted Kimura B hydroponic solution in a growth chamber at a temperature of 28° C. (day)/23° C. (night) and a day length of 12 hours for 14 days. Drought stress was provided by withdrawal of the hydroponic solution from the culture tube for 2 days in a growth chamber at a temperature of 28° C. (day)/23° C. (night) and a day length of 12 hours. After the drought treatment, plants were cultivated in 2-fold diluted Hoagland's hydroponic solution in a growth chamber at a temperature of 28° C. (day)/23° C. (night)) and a day length of 12 hours for 14 days. Then the total fresh weight of the shoots of 5 plants was measured for 3 replicates.
Germinated rice seeds (cultivar; Nipponbare) were cultivated in 2-fold diluted Kimura B hydroponic solution including 1 ppm of the Compound 1 and 0.01% dimethyl sulfoxide in a growth chamber at a temperature of 28° C. (day)/23° C. (night)) and a day length of 12 hours for 14 days. As an untreated control group, the plants were cultivated in the hydroponic solution without Compound 1.
Drought stress was provided by withdrawal of the hydroponic solution from the culture tube for 2 days in a growth chamber at a temperature of 28° C. (day)/23° C. (night) and a day length of 12 hours. After the drought treatment, the treated plants were cultivated in 2-fold diluted Hoagland's hydroponic solution in a growth chamber at a temperature of 28° C. (day)/23° C. (night) and a day length of 12 hours for 14 days, and then total fresh weight of the shoots of 5 plants was examined for 3 replicates.

Oc1ccnc(SCc2cccc(F)c2)n1 [Compound 1, S-(3-Fluorobenzyl)-2-thiouracil]
Shoot Length (mungbean; 1 ppm): 5.5 cm
Root Length (mungbean; 1 ppm): 9.9 cm
Percent Change in Primary Root Length of Mungbean (mungbean; 10 ppm (10 mg/L), benzyl ring substitutions): 10.4%
Shoot Length (mungbean; 10 ppm): 5.2 cm
Root Length (mungbean; 10 ppm): 10.6 cm
Shoot Length (mungbean; 25 ppm): 4.7 cm
Root Length (mungbean; 25 ppm): 9.5 cm
Shoot Length (mungbean; 50 ppm): 3.9 cm
Root Length (mungbean; 50 ppm): 5.8 cm
change in vivo at 10 ppm (mungbean; 96 h, 10 ppm (10 mg/L), benzyl ring substitutions, read-out: Percent Change in Primary Root Length of Mungbean): 10.4%
Effect on mungbean root (and shoot) growth, in words (mungbean; mungbean pouch assay): only a moderate increase in root growth
Average weight of the shoots ([1]; 0.005 grams/100-kg seeds): 1.78 gram/plant
Percent (shoot weight, untreated control = 100) ([1]; 0.005 grams/100-kg seeds, low temperature stress): 119%
Average weight of the shoots ([1]; 0.05 grams/100-kg seeds): 2.06 gram/plant
Percent (shoot weight, untreated control = 100) ([1]; 0.05 grams/100-kg seeds, low temperature stress): 138%
Average weight of the shoots ([1]; 0.5 grams/100-kg seeds): 1.85 gram/plant
Percent (shoot weight, untreated control = 100) ([1]; 0.5 grams/100-kg seeds, low temperature stress): 124%
Average fresh shoot weight versus untreated control, in words ([1]; across 0.005 to 0.5 gram per 100 kilogram seeds, low temperature stress): larger than that of the untreated control
Root Length (radish cv. Cherry Belle; 1 ppm): 4.1 cm
Shoot Length (radish cv. Cherry Belle; 1 ppm): 4.9 cm
Root Length (radish cv. Cherry Belle; 10 ppm): 3.0 cm
Shoot Length (radish cv. Cherry Belle; 10 ppm): 3.3 cm
Effect on radish root and shoot growth, in words (radish cv. Cherry Belle; continuous exposure): increased root and shoot growth
Root Length (rice; 10 mg/liter, 6 days after sowing, untreated control 9.67): 10.80 cm
Root Length (rice; 30 mg/liter, 6 days after sowing, untreated control 9.67): 10.34 cm
Shoot Length (rice; 7.5 ppm, 6 days after treatment): 2.2 cm
Root Length (rice; 7.5 ppm, 6 days after treatment, control 5.1): 7.8 cm
Percent Change in Primary Root Length in Rice (rice; 10 ppm (10 mg/L), benzyl ring substitutions, vs control): 19.8%
Percent Change (rice primary root growth) (rice; 10 ppm, compounds and water-soluble salts, 6 days after sowing): 19.8%
Shoot Length (rice; 30 ppm, 6 days after treatment): 2.2 cm
Root Length (rice; 30 ppm, 6 days after treatment, control 5.1): 7.3 cm
Shoot Length (rice; 100 ppm, 6 days after treatment): 1.9 cm
Root Length (rice; 100 ppm, 6 days after treatment, control 5.1): 5.2 cm
change in vivo at 10 ppm (rice; Oryza sativa, 144 h, 10 ppm (10 mg/L), benzyl ring substitutions, vs control, read-out: Percent Change in Primary Root Length in Rice): 19.8%
Effect on rice root growth, in words (rice; rice pouch assay, compared to control): greatest increases in root length compared to all of the other tested compounds; also recorded: dose-dependent increase in root length
Percent (shoot weight, untreated control = 100) ([2]; 1 ppm in hydroponic solution, drought stress): 112%
Average weight of the shoots ([2]; 1 ppm in hydroponic solution, drought stress 2 days, control 0.43): 0.48 gram/5 plants
Average shoot weight versus untreated control, in words ([2]; 1 ppm, drought stress): larger than that of the untreated control
